Reference: US9630977B2, “Cephalosporin derivatives and pharmaceutical compositions thereof” (Legochem Biosciences, Inc., priority 2011, dated 2017)
In brackets after ≈: the same amount, converted by molar mass. Read-outs that look alike come from different tables or passages of the source.

Columns and labels:
Test in all cases: In vitro antibacterial activity test (broth microdilution)
Format in all cases: cell-based
[1] = test system: K. pneumoniae β13; conditions: Klebsiella pneumoniae
In short: (§1)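 Values: MIC90, ug/mL. Method: CLSI broth microdilution on clinical isolates, compounds at final 0.0626 to 128 ug/mL.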

[2] = test system: P. aeruginosa 6065Y; conditions: Pseudomonas aeruginosa
In short: as §1

[3] = test system: E. coli AG100; conditions: Escherichia coli
In short: as §1

[4] = test system: E. cloacae β19; conditions: Enterobacter cloacae
In short: as §1

[5] = test system: K. pneumoniae β14; conditions: Klebsiella pneumoniae
In short: as §1

[6] = test system: P. aeruginosa 43; conditions: Pseudomonas aeruginosa
In short: as §1

[7] = test system: E. coli β4; conditions: Escherichia coli
In short: as §1

[8] = test system: A. baumannii 49
In short: as §1

[9] = test system: P. aeruginosa 40
In short: as §1

[10] = test system: P. aeruginosa 1912E; conditions: Pseudomonas aeruginosa, 1912E
In short: as §1

[11] = test system: M. catarrhalis 2524; conditions: Moraxella catarrhalis
In short: as §1

[12] = test system: K. pneumoniae β9; conditions: Klebsiella pneumoniae
In short: as §1

[13] = test system: A. baumannii 52; conditions: Acinetobacter baumannii
In short: as §1

[14] = test system: K. pneumoniae 2011E; conditions: Klebsiella pneumoniae, 2011E
In short: as §1

[15] = test system: P. aeruginosa 37; conditions: Pseudomonas aeruginosa, 37, P. aeruginosa 37
In short: as §1

[16] = test system: K. pneumoniae β11; conditions: Klebsiella pneumoniae
In short: as §1

[17] = test system: K. pneumoniae β10; conditions: Klebsiella pneumoniae
In short: as §1

[18] = test system: A. baumannii 46
In short: as §1

[19] = test system: A. calcoaceticus ATCC15473; conditions: Acinetobacter calcoaceticus
In short: as §1

[20] = Acinetobacter baumannii, 49, A. baumannii 49
[21] = Acinetobacter baumannii, 46, A. baumannii 46
[22] = ATCC15473, A. calcoaceticus ATCC15473
[23] = K. pneumoniae β13, read-out: MIC90
[24] = AG100, E. coli AG100, read-out: MIC90
[25] = P. aeruginosa 43, read-out: MIC90
[26] = Acinetobacter baumannii, A. baumannii 49, read-out: MIC90
[27] = Pseudomonas aeruginosa, 40, P. aeruginosa 40, read-out: MIC90
[28] = M. catarrhalis 2524, read-out: MIC90
[29] = K. pneumoniae β9, read-out: MIC90
[30] = A. baumannii 52, read-out: MIC90
[31] = K. pneumoniae 2011E, read-out: MIC90
[32] = K. pneumoniae β11, read-out: MIC90
[33] = K. pneumoniae β10, read-out: MIC90
[34] = Acinetobacter baumannii, A. baumannii 46, read-out: MIC90
[35] = A. calcoaceticus ATCC15473, read-out: MIC90

SMILES	MIC90 [1, 23]	MIC90 [1]	MIC90 ([2]; 6065Y)	MIC90 ([3]; AG100)	MIC90 [4]	MIC90 [5]	MIC90 [6]; 43	MIC90 [7]	MIC90 [8, 20]	MIC90 ([9]; Pseudomonas aeruginosa, 40)	MIC90 [10]	MIC90 [11]; 2524	MIC90 [12]	MIC90 [13]; 52	MIC90 [14]	MIC90 [15]	MIC90 [16]	MIC90 [17]	MIC90 [18, 21]	MIC90 [19, 22]	further results
CC(C)(O/N=C(\C(=O)N[C@@H]1C(=O)N2C(C(=O)[O-])=C(/C=C/C[n+]3cnc(N)c(NCCN)c3N)CSC12)c1csc(N)n1)C(=O)O (stereo partly drawn) [Compound 44]	–	1 µg/mL (≈ 1.51 µM)	32 µg/mL (≈ 48.4 µM)	0.25 µg/mL (≈ 0.378 µM)	0.5 µg/mL (≈ 0.756 µM)	1 µg/mL (≈ 1.51 µM)	128 µg/mL (≈ 193 µM)	0.5 µg/mL (≈ 0.756 µM)	> 128 µg/mL	16 µg/mL (≈ 24.2 µM)	8 µg/mL (≈ 12.1 µM)	< 0.0625 µg/mL	1 µg/mL (≈ 1.51 µM)	> 128 µg/mL	0.5 µg/mL (≈ 0.756 µM)	16 µg/mL (≈ 24.2 µM)	32 µg/mL (≈ 48.4 µM)	0.5 µg/mL (≈ 0.756 µM)	16 µg/mL (≈ 24.2 µM)	1 µg/mL (≈ 1.51 µM)	–
CC(C)(O/N=C(\C(=O)N[C@@H]1C(=O)N2C(C(=O)[O-])=C(/C=C/C[n+]3cnc(N)c(NCCCN)c3)CSC12)c1nsc(N)n1)C(=O)O (stereo partly drawn) [Compound 56]	–	1 µg/mL (≈ 1.51 µM)	16 µg/mL (≈ 24.2 µM)	0.5 µg/mL (≈ 0.756 µM)	4 µg/mL (≈ 6.04 µM)	2 µg/mL (≈ 3.02 µM)	64 µg/mL (≈ 96.7 µM)	1 µg/mL (≈ 1.51 µM)	32 µg/mL (≈ 48.4 µM)	8 µg/mL (≈ 12.1 µM)	2 µg/mL (≈ 3.02 µM)	< 0.0625 µg/mL	1 µg/mL (≈ 1.51 µM)	16 µg/mL (≈ 24.2 µM)	2 µg/mL (≈ 3.02 µM)	8 µg/mL (≈ 12.1 µM)	2 µg/mL (≈ 3.02 µM)	1 µg/mL (≈ 1.51 µM)	4 µg/mL (≈ 6.04 µM)	1 µg/mL (≈ 1.51 µM)	–
CC(C)(O/N=C(\C(=O)N[C@@H]1C(=O)N2C(C(=O)[O-])=C(/C=C/C[n+]3cnc(N)c(NCCN)c3)CSC12)c1nsc(N)n1)C(=O)O (stereo partly drawn) [Compound 55]	–	0.25 µg/mL (≈ 0.386 µM)	8 µg/mL (≈ 12.4 µM)	< 0.0625 µg/mL	8 µg/mL (≈ 12.4 µM)	0.5 µg/mL (≈ 0.772 µM)	> 128 µg/mL	< 0.0625 µg/mL	64 µg/mL (≈ 98.8 µM)	1 µg/mL (≈ 1.54 µM)	1 µg/mL (≈ 1.54 µM)	< 0.0625 µg/mL	2 µg/mL (≈ 3.09 µM)	64 µg/mL (≈ 98.8 µM)	< 0.0625 µg/mL	4 µg/mL (≈ 6.18 µM)	128 µg/mL (≈ 198 µM)	0.125 µg/mL (≈ 0.193 µM)	0.5 µg/mL (≈ 0.772 µM)	0.125 µg/mL (≈ 0.193 µM)	–

Further lines, with some results ahead:

MIC90 [1, 23]	SMILES	MIC90 [1]	MIC90 ([2]; 6065Y)	MIC90 ([3]; AG100)	MIC90 [4]	MIC90 [5]	MIC90 [6]; 43	MIC90 [7]	MIC90 [8, 20]	MIC90 ([9]; Pseudomonas aeruginosa, 40)	MIC90 [10]	MIC90 [11]; 2524	MIC90 [12]	MIC90 [13]; 52	MIC90 [14]	MIC90 [15]	MIC90 [16]	MIC90 [17]	MIC90 [18, 21]	MIC90 [19, 22]	further results
< 0.0625 µg/mL	CC(C)(O/N=C(\C(=O)N[C@@H]1C(=O)N2C(C(=O)[O-])=C(/C=C/C[n+]3cnc(N)c(NCCNC(=O)c4cc(=O)c(O)cn4O)c3)CSC12)c1nsc(N)n1)C(=O)O (stereo partly drawn) [Compound 25]	–	–	–	–	–	–	–	–	–	–	–	–	–	–	–	–	–	–	–	MIC90 ([2]; read-out: MIC90): 0.5 µg/mL (≈ 0.624 µM); MIC90 [3, 24]: < 0.0625 µg/mL; MIC90 ([4]; read-out: MIC90): 1 µg/mL (≈ 1.25 µM); MIC90 ([5]; read-out: MIC90): 16 µg/mL (≈ 20 µM); MIC90 [6, 25]: 0.25 µg/mL (≈ 0.312 µM); MIC90 ([7]; read-out: MIC90): < 0.0625 µg/mL; MIC90 [8, 26]: 128 µg/mL (≈ 160 µM); MIC90 [9, 27]: < 0.0625 µg/mL; MIC90 ([10]; read-out: MIC90): 0.25 µg/mL (≈ 0.312 µM); MIC90 [11, 28]: < 0.0625 µg/mL; MIC90 [12, 29]: < 0.0625 µg/mL; MIC90 [13, 30]: 8 µg/mL (≈ 9.99 µM); MIC90 [14, 31]: 0.25 µg/mL (≈ 0.312 µM); MIC90 ([15]; read-out: MIC90): < 0.0625 µg/mL; MIC90 [16, 32]: > 128 µg/mL; MIC90 [17, 33]: < 0.0625 µg/mL; MIC90 [18, 34]: 0.5 µg/mL (≈ 0.624 µM); MIC90 [19, 35]: 0.25 µg/mL (≈ 0.312 µM)
0.125 µg/mL (≈ 0.152 µM)	C[C@H](O/N=C(\C(=O)N[C@@H]1C(=O)N2C(C(=O)[O-])=C(/C=C/C[n+]3cnc(N)c(NCCNC(=O)c4cc(=O)c(O)cn4O)c3)CSC12)c1nc(N)sc1Cl)C(=O)O (stereo partly drawn) [Compound 24]	–	–	–	–	–	–	–	–	–	–	–	–	–	–	–	–	–	–	–	MIC90 ([2]; read-out: MIC90): 0.5 µg/mL (≈ 0.61 µM); MIC90 [3, 24]: < 0.0625 µg/mL; MIC90 ([4]; read-out: MIC90): 0.5 µg/mL (≈ 0.61 µM); MIC90 ([5]; read-out: MIC90): 4 µg/mL (≈ 4.88 µM); MIC90 [6, 25]: 0.25 µg/mL (≈ 0.305 µM); MIC90 ([7]; read-out: MIC90): < 0.0625 µg/mL; MIC90 [8, 26]: 32 µg/mL (≈ 39 µM); MIC90 [9, 27]: 0.25 µg/mL (≈ 0.305 µM); MIC90 ([10]; read-out: MIC90): 0.25 µg/mL (≈ 0.305 µM); MIC90 [11, 28]: < 0.0625 µg/mL; MIC90 [12, 29]: < 0.0625 µg/mL; MIC90 [13, 30]: 16 µg/mL (≈ 19.5 µM); MIC90 [14, 31]: 0.5 µg/mL (≈ 0.61 µM); MIC90 ([15]; read-out: MIC90): < 0.0625 µg/mL; MIC90 [16, 32]: 2 µg/mL (≈ 2.44 µM); MIC90 [17, 33]: < 0.0625 µg/mL; MIC90 [18, 34]: 2 µg/mL (≈ 2.44 µM); MIC90 [19, 35]: 0.5 µg/mL (≈ 0.61 µM)
4 µg/mL (≈ 4.78 µM)	CC(C)(O/N=C(\C(=O)N[C@@H]1C(=O)N2C(C(=O)[O-])=C(C[n+]3cnc(N)c(NC(=O)CCNC(=O)c4cc(=O)c(O)cn4O)c3)CSC12)c1nc(N)sc1Cl)C(=O)O (stereo partly drawn) [Compound 18]	–	–	–	–	–	–	–	–	–	–	–	–	–	–	–	–	–	–	–	MIC90 ([2]; read-out: MIC90): 2 µg/mL (≈ 2.39 µM); MIC90 [3, 24]: 2 µg/mL (≈ 2.39 µM); MIC90 ([4]; read-out: MIC90): 64 µg/mL (≈ 76.5 µM); MIC90 ([5]; read-out: MIC90): 128 µg/mL (≈ 153 µM); MIC90 [6, 25]: 0.25 µg/mL (≈ 0.299 µM); MIC90 ([7]; read-out: MIC90): 16 µg/mL (≈ 19.1 µM); MIC90 [8, 26]: 8 µg/mL (≈ 9.57 µM); MIC90 [9, 27]: 2 µg/mL (≈ 2.39 µM); MIC90 ([10]; read-out: MIC90): 1 µg/mL (≈ 1.2 µM); MIC90 [11, 28]: 0.5 µg/mL (≈ 0.598 µM); MIC90 [12, 29]: 8 µg/mL (≈ 9.57 µM); MIC90 [13, 30]: 2 µg/mL (≈ 2.39 µM); MIC90 [14, 31]: 16 µg/mL (≈ 19.1 µM); MIC90 ([15]; read-out: MIC90): 0.25 µg/mL (≈ 0.299 µM); MIC90 [16, 32]: 64 µg/mL (≈ 76.5 µM); MIC90 [17, 33]: 4 µg/mL (≈ 4.78 µM); MIC90 [18, 34]: 128 µg/mL (≈ 153 µM); MIC90 [19, 35]: 1 µg/mL (≈ 1.2 µM)
